From patent US7572439B2, “Enzyme disruption of bacterial biofilms” (priority 2002, dated 2009)

Legend:
SA5 [1] = assay: Leaching of lysostaphin off coated surfaces; format: cell-based, S. aureus
Method: Leaching of Lysostaphin. To test whether lysostaphin was slowly being released from the catheter into the lumen solution, lysostaphin coated catheters were incubated with 100 μl PBS for 2 hours at 37° C. The PBS was then transferred into an Eppendorf tube and 10^5 CFU of SA5 was added to the effluent and incubated for 1 hour at 37° C. 40 μl from the samples were streaked onto blood agar plates and incubated overnight at 37° C. Alternatively, lysostaphin coated catheters were incubated with PBS overnight at 37° C. The following morning the PBS was washed out and the catheters were inoculated with ˜5×10^4 CFU/ml SA5 for 2 hours at 37° C. The effluent was then streaked onto blood agar plates and incubated at 37° C. overnight. To look for leaching off the polystyrene surface, the wells were coated with 10, 1 and 0.1 mg/ml lysostaphin for 60 minutes. The wells were then washed, and 300 μl of PBS was added to the wells for 2 hours and then removed 300 μl of a 5×10^4 CFU/ml solution of SA5 was added to the PBS wash and allowed to incubate for one hour at 37° C. 40 μl was then removed and streaked onto a blood agar plate and incubated overnight at 37° C.

SA5 [2] = assay: Long-term leaching of lysostaphin from coated catheters; format: cell-based, S. aureus
Method: Long-term Leaching of Lysostaphin. Ten lysostaphin-coated catheters (10 mg/ml coating concentration) were incubated with PBS for 2 hours at 37° C. The catheters were then washed and two of the ten lysostaphin coated catheters were incubated with 200 μl of a 5×10^4 CFU/ml solution of SA5 for 2 hours at 37° C. The effluent was streaked on to blood agar plates and incubated at 37° C. overnight. The rest of the catheters were incubated with fresh PBS and left at 37° C. overnight. The following day, all eight catheters were washed out and two of the catheters were incubated with bacteria as above. The other six catheters were again incubated with fresh PBS and left at 37° C. overnight. This procedure was repeated everyday for four days.

[3] = test system: Methicillin Sensitive S. aureus; assay: Treatment of established infection in jugular vein catheterized mice; format: in vivo
Method: (§1) Jugular vein catheterized mice (Charles River Labs) were used. The mice were challenged through the tail vein with S. aureus (10^3-10^4CFU, a much lower dose than the 5×10^6 CFU or greater typically necessary to establish an infection in mice not catheterized). Treatment began four days post challenge when infection was established. Lysostaphin was administered through the indwelling catheter in a volume of 200 μ PBS (in the case of methicillin resistant S. aureus, nafcillin was added to the treatment). After the final treatment of the day, 50 μl of a lock solution (50% sterile glucose solution) with lysostaphin (and nafcillin, when used), added at the same concentration as used for treatment, was put in the catheters. Control mice received equal treatments with PBS and lock solution alone.
(§2) On the day following the last treatment the liver, heart and a portion of the catheter in the heart were harvested. The catheter portions were sonicated to release bacteria.

[4] = test system: Methicillin-Resistant S. aureus; assay: as above; format: in vivo
Method: as §1, §2

S. aureus [5] = assay: Killing of bacteria in lysostaphin-coated Angiocath catheters; format: cell-based
Method: Two Angiocath catheters (Becton Dickinson) were incubated with 200 PI of a 100 μg/mL solution of lysostaphin, while two others were incubated in PBS. The catheters were allowed to incubate overnight at 4° C. The following morning the catheters were washed with 50 ml PBS using a pump with a flow rate of 1.5 ml/minute. Once the catheters were washed, S. aureus SA5 was diluted in PBS to a percent transmittance of 40. A 1:10,000 dilution of this solution was made, and 100 μl was added to each catheter. The catheters were allowed to incubate for two hours at 37° C. Following incubation, the catheter effluent was plated onto blood agar plates and put in the incubator overnight at 37° C. The colonies on the plates were counted the following morning.
(§3) Coating of Catheters. The needles from the AngioCath catheters were removed and disposed. Using a 1 ml syringe, the catheters were coated with 200 μl of a 0.1 mg/ml solution of lysostaphin. The catheters were incubated for 1 hour, unless otherwise specified, at room temperature. The catheters were then washed with 50 ml of phosphate buffered saline using a peristaltic pump with a flow rate of 1.5 ml/minute. The catheters were then inoculated with 120 μl of a ˜5×10^4 CFU/ml solution of bacteria (diluted in TSB) and incubated for 2 hours at 37° C. The catheter effluent was then streaked onto a blood agar plate and incubated overnight at 37° C.

S. epidermidis = assay: as above; format: cell-based; conditions: for CFU (n = 2): catheter coating 0.1 mg/ml; for log reduction from the control sample: coated catheters
Method: as §3

S. aureus [6] = assay: Lysostaphin activity on catheters in presence of serum proteins; format: cell-based
S. epidermidis biofilms = assay: Disruption of S. epidermidis biofilms on glass chamber slide; format: cell-based; parameters: dose or concentration left out as unconfirmed
Source text: Three S. epidermidis strains with various capacities for glycocalyx (slime) production were examined including, S. epidermidis strain Hay (a low slime producer), S. epidermidis strain SEI 175 (a moderate slime producer) and S. epidermidis ATCC 35984 (a high slime producer). All three of these S. epidermidis strains produced biofilms on a glass chamber slide (FIG. 9) with ATCC 35984 producing the thickest and most darkly staining biofilm as expected. […] S. aureus strain SA113 was included in this experiment as a control. […] The stained material visible in lysostaphin treated wells is extracellular glycocalyx which stained pink by safranin and contained no intact gram positive S. epidermidis cells, only cellular debris.

[7] = Table 7, MRSA, 20 mg/kg t.i.d. 4 days

lysostaphin
CFU (n = 3) (SA5 [1]; Angiocath, coating 0.1 mg/ml, saline incubation 2 hr, bacteria added to PBS wash): 219 CFU | CFU (n = 3) (SA5 [1]; Angiocath, coating 0.1 mg/ml, saline incubation 24 hr, bacteria added to catheter): 0 CFU | CFU (n = 3) (SA5 [1]; Polystyrene, coating 0.1 mg/m, saline incubation 2 hr, killing in wash): 291 CFU | CFU (n = 3) (SA5 [1]; Polystyrene, coating 1 mg/ml, saline incubation 2 hr, killing in wash): 33 CFU | CFU (n = 3) (SA5 [1]; Polystyrene, coating 10 mg/ml, saline incubation 2 hr, killing in wash): 26 CFU | reduction in bacterial counts by PBS wash from coated catheters (SA5 [1]; bacteria added to PBS wash): only minimal reduction in bacterial counts | log reduction in bacterial counts due to leaching (SA5 [1]; polystyrene, 0.1 mg/ml coating, PBS wash): 0.33 log | log reduction of SA5 titers by wash compared to control (SA5 [1]; polystyrene, 1 mg/ml coating, PBS wash): 1.3 log | log reduction of SA5 titers by wash compared to control (SA5 [1]; polystyrene, 10 mg/ml coating, PBS wash): 1.4 log | clearing of bacteria by coated catheters after overnight wash with PBS (SA5 [1]; vs 1500 CFU's from untreated catheters): complete clearing of bacteria | log reduction in bacteria recovered vs uncoated catheters (SA5 [2]; 10 mg/ml coated catheters, two-hour incubation with PBS): 2.8 log | log reduction in bacterial counts (SA5 [2]; PBS incubation 24 hours): 1.8 log | log reduction in bacterial counts (SA5 [2]; PBS incubation 48 hours): 1.5 log | log reduction in bacterial counts (SA5 [2]; PBS incubation 72 hours): 0.7 log | log reduction in bacterial counts (SA5 [2]; PBS incubation 96 hours): 0.3 log | S. aureus biofilm on implanted catheters (SEM, FIG. 6) ([3]; jugular vein catheterized mice after treatment): cleared the S. aureus biofilm from these catheters | dose required for clearance of an established catheter infection ([3]; methicillin sensitive S. aureus, t.i.d. for 4 days): 20 mg/kg | S. aureus recovered, Heart [4, 7]: 0 CFU | S. aureus recovered, Liver [4, 7]: 0 CFU | S. aureus recovered, Heart ([4]; Table 7, MRSA, 40 mg/kg t.i.d. 4 days): 0 CFU | clearance of the S. aureus infection ([4]; lower doses or different dosing regimens (40 mg/kg once then 5 mg/kg; 3 doses of 15 mg/kg then 5 mg/kg)): did not result in complete clearance | minimum dose necessary to clear catheters in mice ([4]; three times a day for four days): 40 mg/kg | CFU (S. aureus [5]; Angiocath, coating 100 μg/ml overnight 4° C., SA5 two hours 37° C.): 0 CFU | CFU (n = 2) (S. aureus [5]; Table 13, AngioCath, coating concentration 0.1 mg/ml): 0 CFU | CFU (n = 2) (S. aureus [5]; catheter coating 0.1 mg/ml, MRSA (MBT5040)): 1 CFU | CFU (n = 2) (S. aureus [5]; catheter coating 0.1 mg/ml, SA5): 1 CFU | CFU (n = 2) (S. aureus [5]; catheter coating 0.1 mg/ml, SA8): 0 CFU | reduction of bacterial counts (S. aureus [5]; catheters coated 5 minutes with 0.1 mg/ml): 98.7% | reduction of bacterial counts (S. aureus [5]; catheters coated 10 minutes with 0.1 mg/ml): 99.4% | reduction of bacterial counts (S. aureus [5]; catheters coated 15 minutes with 0.1 mg/ml): completely cleared | clearing of bacteria from coated catheters (S. aureus [5]; catheters incubated with SA8): completely cleared | CFU recovered from the catheters, on average (S. aureus [5]; coated catheters incubated with MRSA (MBT5040)): 1 CFU | clearing of bacteria from coated catheters (S. aureus [5]; vs 493 CFU's from control catheters): completely cleared of bacteria | CFU (n = 2) (S. epidermidis; S. epi 380): 4 CFU | CFU (n = 2) (S. epidermidis; S. epi 1175): 68 CFU | CFU (n = 2) (S. epidermidis; S. epi 35984): 16 CFU | log reduction from the control sample (S. epidermidis; S. epidermidis 1175): 1.1 log | log reduction from the control sample (S. epidermidis; S. epidermidis ATCC 35984): 1.8 log | log reduction from the control sample (S. epidermidis; S. epidermidis type 380): 2.2 log | reduction in bacterial counts (S. aureus [6]; 0.1 mg/ml coated catheters incubated with human serum 24 hours): 99% | clearing of bacteria (S. aureus [6]; 10 and 1 mg/ml coated catheters incubated with human serum): completely cleared the bacteria | intact bacteria on surface after treatment (microscopic examination) (S. epidermidis biofilms; three hours (data not shown)): no intact bacteria left | disruption of S. epidermidis biofilms (safranin) (S. epidermidis biofilms; three hours, strains Hay, SE1175, ATCC 35984): disrupted the biofilms of all three strains
